Results from patent US9663530B2, “5-oxa-2-azabicyclo[2.2.2]OCTAN-4-yl and 5-oxa-2-azabicyclo[2.2.1]heptan-4-yl derivatives” (Hoffmann-La Roche Inc., priority 2014, dated 2017).

Tests used:
rat TAAR1 = rat TAAR1 (Rattus norvegicus (Rat), UniProt Q923Y9); assay: Radioligand binding assay on rat TAAR1; conditions: for Ki: rat TAAR1 (second value of the cell), membranes of HEK-293 cells stably expressing rat TAAR1, read-out: Ki (μM) mouse/rat
Method: (§1) Construction of TAAR Expression Plasmids and Stably Transfected Cell Lines
(§2) For the construction of expression plasmids the coding sequences of human, rat and mouse TAAR 1 were amplified from genomic DNA essentially as described by Lindemann et al.. The Expand High Fidelity PCR System (Roche Diagnostics) was used with 1.5 mM Mg^2+ and purified PCR products were cloned into pCR2.1-TOPO cloning vector (Invitrogen) following the instructions of the manufacturer. PCR products were subcloned into the pIRESneo2 vector (BD Clontech, Palo Alto, Calif.), and expression vectors were sequence verified before introduction in cell lines.
(§3) HEK293 cells (ATCC # CRL-1573) were cultured essentially as described by Lindemann et al. (2005). For the generation of stably transfected cell lines HEK293 cells were transfected with the pIRESneo2 expression plasmids containing the TAAR coding sequences (described above) with Lipofectamine 2000 (Invitrogen) according to the instructions of the manufacturer, and 24 hrs post transfection the culture medium was supplemented with 1 mg/ml G418 (Sigma, Buchs, Switzerland). After a culture period of about 10 d clones were isolated, expanded and tested for responsiveness to trace amines (all compounds purchased from Sigma) with the cAMP Biotrak Enzyme immunoassay (EIA) System (Amersham) following the non-acetylation EIA procedure provided by the manufacturer.
Radioligand Binding Assay on Rat TAAR1
(§4) Membrane Preparation and Radioligand Binding.
HEK-293 cells stably expressing rat TAAR1 were maintained at 37° C. and 5% CO2 in DMEM high glucose medium, containing fetal calf serum (10%, heat inactivated for 30 min at 56° C.), penicillin/streptomycin (1%), and 375 μg/ml geneticin (Gibco). Cells were released from culture flasks using trypsin/EDTA, harvested, washed twice with ice-cold PBS (without Ca^2+ and Mg^2+), pelleted at 1,000 rpm for 5 min at 4° C., frozen and stored at −80° C. Frozen pellets were suspended in 20 ml HEPES-NaOH (20 mM, pH 7.4) containing 10 mM EDTA and homogenized with a Polytron (PT 6000, Kinematica) at 14,000 rpm for 20 s. The homogenate was centrifuged at 48,000×g for 30 min at 4° C. Subsequently, the supernatant was removed and discarded, and the pellet resuspended in 20 ml HEPES-NaOH (20 mM, pH 7.4) containing 0.1 mM EDTA using the Polytron (20 s at 14,000 rpm). This procedure was repeated and the final pellet resuspended in HEPES-NaOH containing 0.1 mM EDTA and homogenized using the Polytron. Typically, aliquots of 2 ml membrane portions were stored at −80° C. With each new membrane batch the dissociation constant (Kd) was determined via a saturation curve. […] Nonspecific binding was defined as the amount of ^3[H]-(S)-4-[(ethyl-phenyl-amino)-methyl]-4,5-dihydro-oxazol-2-ylamine bound in the presence of 10 μM unlabeled ligand. All compounds were tested at a broad range of concentrations ([…]) in duplicates. The test compounds (20 […]μl/well) were transferred into a 96 deep well plate (TreffLab), and 180 μl of HEPES-NaOH (20 mM, pH 7.4) containing MgCl2 (10 mM) and CaCl2 (2 mM) (binding buffer), 300 μl of the radioligand ^3[H]-(S)-4-[(ethyl-phenyl-amino)-methyl]-4,5-dihydro-oxazol-2-ylamine at a concentration of 3.3×Kd in nM and 500 μl of the membranes (resuspended at 50 μg protein per ml) added. The 96 deep well plates were incubated for 1 hr at 4° C. Incubations were terminated by rapid filtration through Unifilter-96 plates (Packard Instrument Company) and glass filters GF/C (Perkin Elmer) presoaked for 1 hr in polyethylenimine (0.3%) and washed 3 times with 1 ml of cold binding buffer. After addition of 45 μl of Microscint 40 (PerkinElmer) the Unifilter-96 plate was sealed and after 1 hr the ratioactivity counted using a TopCount Microplate Scintillation Counter (Packard Instrument Company).

mouse TAAR1 = mouse TAAR1 (Mus musculus (Mouse), UniProt Q923Y8); assay: Radioligand binding assay on mouse TAAR1; conditions: for Ki: mouse TAAR1 (first value of the cell), membranes of HEK-293 cells stably expressing mouse TAAR1, read-out: Ki (μM) mouse/rat
mouse TAAR1, sequence (Q923Y8 whole entry): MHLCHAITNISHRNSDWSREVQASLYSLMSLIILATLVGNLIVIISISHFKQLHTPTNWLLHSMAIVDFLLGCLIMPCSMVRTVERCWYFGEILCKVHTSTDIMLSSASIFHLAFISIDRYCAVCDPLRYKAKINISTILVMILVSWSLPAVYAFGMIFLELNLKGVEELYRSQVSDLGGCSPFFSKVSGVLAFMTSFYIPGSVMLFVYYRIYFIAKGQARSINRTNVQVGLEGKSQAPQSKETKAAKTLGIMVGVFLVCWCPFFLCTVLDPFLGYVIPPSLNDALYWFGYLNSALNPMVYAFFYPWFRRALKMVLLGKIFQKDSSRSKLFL
Method: as §1, §2, §3
Radioligand Binding Assay on Mouse TAAR1
as §4
HEK-293 cells stably expressing mouse TAAR1 were maintained at 37° C. and 5% CO2 in DMEM high glucose medium, containing fetal calf serum (10%, heat inactivated for 30 min at 56° C.), penicillin/streptomycin (1%), and 375 μg/ml geneticin (Gibco). Cells were released from culture flasks using trypsin/EDTA, harvested, washed twice with ice-cold PBS (without Ca^2+and Mg^2+), pelleted at 1,000 rpm for 5 min at 4° C., frozen and stored at −80° C. Frozen pellets were suspended in 20 ml HEPES-NaOH (20 mM, pH 7.4) containing 10 mM EDTA and homogenized with a Polytron (PT 6000, Kinematica) at 14,000 rpm for 20 s. The homogenate was centrifuged at 48,000×g for 30 min at 4° C. Subsequently, the supernatant was removed and discarded, and the pellet resuspended in 20 ml HEPES-NaOH (20 mM, pH 7.4) containing 0.1 mM EDTA using the Polytron (20 s at 14,000 rpm). This procedure was repeated and the final pellet resuspended in HEPES-NaOH containing 0.1 mM EDTA and homogenized using the Polytron. Typically, aliquots of 2 ml membrane portions were stored at −80° C. With each new membrane batch the dissociation constant (Kd) was determined via a saturation curve. The TAAR1 radioligand ^3[H]-(S)-4-[(ethyl-phenyl-amino)-methyl]-4,5-dihydro-oxazol-2-ylamine (described in WO 2008/098857) was used at a concentration equal to the calculated Kd value, that was usually around 0.7 nM, resulting in the binding of approximately 0.5% of the radioligand and a specific binding representing approximately 70% of the total binding. Nonspecific binding was defined as the amount of ^3[H]-(S)-4-[(ethyl-phenyl-amino)-methyl]-4,5-dihydro-oxazol-2-ylamine bound in the presence of 10 μM unlabeled ligand. All compounds were tested at a broad range of concentrations ([…]) in duplicates. The test compounds (20 […]μl/well) were transferred into a 96 deep well plate (TreffLab), and 180 μl of HEPES-NaOH (20 mM, pH 7.4) containing MgCl2 (10 mM) and CaCl2 (2 mM) (binding buffer), 300 μl of the radioligand ^3[H]-(S)-4-[(ethyl-phenyl-amino)-methyl]-4,5-dihydro-oxazol-2-ylamine at a concentration of 3.3×Kd in nM and 500 μl of the membranes (resuspended at […]) added. The 96 deep well plates were incubated for 1 hr at 4° C. Incubations were terminated by rapid filtration through Unifilter-96 plates (Packard Instrument Company) and glass filters GF/C (Perkin Elmer) presoaked for 1 hr in polyethylenimine (0.3%) and washed 3 times with 1 ml of cold binding buffer. […]

rat TAAR1, sequence (Q923Y9 whole entry): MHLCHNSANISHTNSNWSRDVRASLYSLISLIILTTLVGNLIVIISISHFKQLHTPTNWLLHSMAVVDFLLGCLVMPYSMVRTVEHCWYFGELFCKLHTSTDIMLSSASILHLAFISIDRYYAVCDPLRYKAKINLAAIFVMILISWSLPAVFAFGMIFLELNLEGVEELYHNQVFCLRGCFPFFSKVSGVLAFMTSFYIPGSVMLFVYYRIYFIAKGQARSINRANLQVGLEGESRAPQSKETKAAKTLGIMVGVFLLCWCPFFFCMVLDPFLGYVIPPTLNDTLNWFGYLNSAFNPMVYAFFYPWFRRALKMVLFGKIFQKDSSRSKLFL

SMILES	Ki (rat TAAR1) [µM]	Ki (mouse TAAR1) [µM]	Kd (rat TAAR1; rat TAAR1 membranes, saturation curve, read-out: dissociation constant (Kd) of the TAAR1 radioligand) [nM]	Kd (mouse TAAR1; mouse TAAR1 membranes, saturation curve, read-out: dissociation constant (Kd) of the TAAR1 radioligand) [nM]
O=C(Nc1ccc([C@]23CN[C@H](CO2)C3)cc1)c1cccc(Cl)c1 [Example 59, 3-Chloro-N-[4-[(1S,4R)-5-oxa-2-azabicyclo[2.2.1]heptan-4-yl]phenyl]benzamide]	0.0774	0.0054	–	–
O=C(Nc1ccc(C[C@]23CN[C@H](CO2)C3)cc1)Nc1ccc(C(F)(F)F)cc1 [Example 8, 1-[4-[[(1S,4S)-5-Oxa-2-azabicyclo[2.2.1]heptan-4-yl]methyl]phenyl]-3-[4-(trifluoromethyl)phenyl]urea]	0.0442	0.846	–	–
FC(F)(F)c1cnc(Nc2ccc(C[C@]34CN[C@H](CO3)C4)cc2)nc1 [Example 33, N-[4-[[(1S,4S)-5-Oxa-2-azabicyclo[2.2.1]heptan-4-yl]methyl]phenyl]-5-(trifluoromethyl)pyrimidin-2-amine]	0.881	5.8	–	–
O=C(Nc1ccc(C[C@@]23CN[C@@H](CO2)C3)cc1)c1ccc(Cl)cc1 [Example 21, 4-Chloro-N-[4-[[(1R,4R)-5-oxa-2-azabicyclo[2.2.1]heptan-4-yl]methyl]phenyl]benzamide]	0.0626	0.003	–	–
O=C(Nc1ccc(C[C@]23CN[C@H](CO2)C3)cc1)Nc1cccc(C(F)(F)F)c1 [Example 10, 1-[4-[[(1S,4S)-5-Oxa-2-azabicyclo[2.2.1]heptan-4-yl]methyl]phenyl]-3-[3-(trifluoromethyl)phenyl]urea]	0.0209	0.365	–	–
O=C(Nc1ccc(C[C@@]23CN[C@@H](CO2)C3)cc1)Nc1cccc(C(F)(F)F)c1 [Example 44, 1-[4-[[(1R,4R)-5-Oxa-2-azabicyclo[2.2.1]heptan-4-yl]methyl]phenyl]-3-[3-(trifluoromethyl)phenyl]urea]	0.0108	0.0046	–	–
FC(F)(F)c1nccc(Nc2ccc([C@@]34CN[C@@H](CO3)C4)cc2)n1 [Example 56, N-[4-[(1R,4S)-5-Oxa-2-azabicyclo[2.2.1]heptan-4-yl]phenyl]-2-(trifluoromethyl)pyrimidin-4-amine]	2.41	0.0393	–	–
Clc1ccc(Nc2ccc(C[C@]34CN[C@H](CO3)C4)cc2)nc1 [Example 30, 5-Chloro-N-[4-[[(1S,4S)-5-oxa-2-azabicyclo[2.2.1]heptan-4-yl]methyl]phenyl]pyridin-2-amine]	0.621	2.55	–	–
O=C(Nc1ccc(C[C@]23CN[C@H](CO2)C3)cc1)Nc1cccc(Cl)c1 [Example 2, 1-(3-Chlorophenyl)-3-[4-[[(1S,4S)-5-oxa-2-azabicyclo[2.2.1]heptan-4-yl]methyl]phenyl]urea]	0.0822	1.35	–	–
CCN(C[C@H]1COC(N)=N1)c1ccccc1 [^3[H]-(S)-4-[(ethyl-phenyl-amino)-methyl]-4,5-dihydro-oxazol-2-ylamine, reference compound]	–	–	~2.3	~0.7
O=C(Nc1ccc(C23CCC(CO2)NC3)cc1)c1ccnc(C(F)(F)F)c1 (racemic) [Example 37, (RS)—N-[4-(5-Oxa-2-azabicyclo[2.2.2]octan-4-yl)phenyl]-2-(trifluoromethyl)pyridine-4-carboxamide]	1.44	0.0377	–	–
CCOc1ccc(C(=O)Nc2ccc(C[C@]34CN[C@H](CO3)C4)cc2)cc1 [Example 19, 4-Ethoxy-N-[4-[[(1 S,4S)-5-oxa-2-azabicyclo[2.2.1]heptan-4-yl]methyl]phenyl]benzamide]	0.063	0.334	–	–
O=C(Nc1ccc([C@]23CN[C@H](CO2)C3)cc1)c1ccc(Cl)cc1 [Example 58, 4-Chloro-N-[4-[(1S,4R)-5-oxa-2-azabicyclo[2.2.1]heptan-4-yl]phenyl]benzamide]	0.071	0.016	–	–
O=C(Nc1ccc(C[C@@]23CN[C@@H](CO2)C3)cc1)c1cnc(C2CC2)nc1 [Example 51, 2-Cyclopropyl-N-[4-[[(1R,4R)-5-oxa-2-azabicyclo[2.2.1]heptan-4-yl]methyl]phenyl]pyrimidine-5-carboxamide]	0.324	0.0774	–	–
